{"source": "patent US7638119B2", "about": "“Method of diminishing the symptoms of neurodegenerative disease” (priority 2004, dated 2009)", "key": {"[1]": {"test_system": "Nrf2+/+ and −/− primary cortical neuronal cultures", "experiment": "LDH release cytotoxicity in primary neuronal cultures treated with 3NP", "assay_type": "cell-based, mouse", "settings": "Nrf2−/− versus wild-type cultures, all doses, treated for 48", "protocol": "(§1) For primary cortical neuronal cultures, Nrf2+/− mice were bred and cultures were prepared from individual E15/16 embryos as previously described (Lee, J. M., et al., supra, 2003). Treatments were applied between day 3 and 5 in vitro. Immunostaining for β-III-tubulin and GFAP confirmed no difference in the ratio of neurons to astrocytes between genotypes (data not shown). HPAP+ cultures were prepared similarly. HPAP activity and histochemistry in primary cultures was measured as previously described (Johnson, D. A., et al., supra, 2002).\n(§2) LDH release into medium was measured using the CytoTox96 Non-Radioactive Cytotoxicity Assay kit (Promega) according to the manufacturers instructions. LDH activity was measured on both media and lysed cells. After normalizing to non-treated wells, the percentage of LDH in the media was calculated. Each measurement was made in at least triplicate on separate cultures from three individual pups. Terminal deoxynucleotidyltransferase-mediated dUTP nick end labeling (TUNEL; Roche Applied Science) staining was also performed according to the manufacturers instructions on cultures from at least two different pups per genotype.\n(§3) In order to examine the differential sensitivity of Nrf2−/− neurons to complex II inhibition, Nrf2+/+ and −/− primary cortical neuronal cultures (3 DIV) were treated with 3NP for 48 and assessed for LDH release. […]"}, "[2]": {"test_system": "Nrf2+/+ and −/− primary cortical neuronal cultures", "experiment": "TUNEL staining of primary neuronal cultures treated with 3NP", "assay_type": "cell-based, mouse", "settings": "2 mM 3NP, visual inspection", "protocol": "as §1, §2, §3"}, "[3]": {"test_system": "antioxidant response element (ARE)", "experiment": "hPAP reporter activation after 3NP in ARE-hPAP primary neuronal cultures", "assay_type": "cell-based, mouse", "settings": "ARE-hPAP+ primary cortical neuronal cultures, neurotoxic doses, 48 hours", "description": "Nrf2−/− and ARE-hPAP transgenic reporter mice were bred separately. Nrf2−/− mice were created by targeted disruption of the Nrf2 gene (Chan, K., et al., Proc. Natl. Acad. Sci. USA 93:13943-13948, 1996). ARE-hPAP reporter mice were created by insertion of a 51 basepair segment of rat NAD(P)H Quinone Oxidoreductase-1 promoter containing the core ARE into a minimal promoter upstream of the heat stable human Placental Alkaline Phosphatase (hPAP) (Johnson, D. A., et al., J. Neurochem. 81:1233-1241, 2002).\nas §1\nThis activation was localized to the surviving astrocytes (FIG. 2B) as visualized by vector red staining and GFAP co-labeling."}, "Nrf2−/−, +/− or +/+ mice [4]": {"test_system": "Nrf2−/−, +/− or +/+ mice", "experiment": "Systemic 3NP administration: phenotypic scoring, death and weight loss", "assay_type": "in vivo, mouse", "protocol": "(§4) Nrf2−/−, +/−, or +/+ mice received i.p. injections of 50 mg/kg 3NP or vehicle every 12 hours for a total of 7 injections. 25 mg/ml 3-NP in PBS was prepared fresh and adjusted to pH 7.4 with 10M NaOH. Individual doses were diluted so that injection volume remained constant at 200 μl. Six to eight hours after the last dose mice were sacrificed as below. One Nrf2 KO mouse died prior to the seventh dose and three others had severe symptoms that were classified as stage III according to Gabrielson, et al. (Gabrielson, K. L., et al., Am. J. Pathol. 159:1507-1520, 2001).\nWe posited that this increased sensitivity would also extend to an in vivo model. 18 week-old mice were dosed every 12 hours with 50 mg/kg 3NP. After seven doses, a clear differential sensitivity had emerged based on the subjective classification described by Gabrielson, et al. (Gabrielson, K. L., et al., supra, 2001). […] No Nrf2+/+ or Nrf2+/− mice rated above stage 1.\nTable 1: Phenotypic scoring of mice after 3NP administration. Nrf2+/+, Nrf2+/− and Nrf2−/− mice were scored Stage 0, I, II or III based on the development of clinical symptoms."}, "Nrf2−/−, +/− or +/+ mice [5]": {"test_system": "Nrf2−/−, +/− or +/+ mice", "experiment": "Rotarod performance after 3NP", "assay_type": "in vivo, mouse", "settings": "Nrf2−/− mice versus 3NP-injected Nrf2+/+ and heterozygous mice, four hours after last dose, 5 rpm", "protocol": "To assess sensorimotor deficits in 3NP-treated animals, mice were trained up to 5 times per day on the rotarod (Columbus Instruments) for three days prior to 3-NP administration (Fernagut, P. O., et al., Neuroscience 114:1005-1017, 2002). All mice were able to achieve 180 sec (5 rpm) on the first trial by day three. Rotarod function was measured prior to the first dose and following the last dose of 3-NP.\nFour hours after the last dose, motor skills were assessed by rotarod performance. Up to three trials were given for each mouse and the longest time spent on the rotarod was used for analysis. All PBS-injected mice were able to maintain 5 rpm for 180 sec (the maximum time allowed)."}, "Nrf2−/−, +/− or +/+ mice [6]": {"test_system": "Nrf2−/−, +/− or +/+ mice", "experiment": "Striatal lesions after 3NP (Fluorojade-B, cresyl violet)", "assay_type": "in vivo, mouse", "protocol": "as §4\n(§5) Mice were euthanized with CO2 and perfused with 4% paraformaldehyde. Tissues were post-fixed overnight at 4° C. and cryoprotected in 30% sucrose/PBS. Using a cryostat (Leica), adjacent coronal 20 μm and 50 μm sections were taken for staining with Fluorojade-B and cresyl violet respectively through the entire striatum. […] Lesion size was quantified using the Cavieleri Estimator (Stereoinvestigator; Microbrightfield) on sections 200 μm apart. HPAP histochemistry was measured as previously described (Johnson, D. A., et al., supra, 2002).\nAfter mice were sacrificed, brains were stained with cresyl violet or Fluorojade-B (FIG. 3C). Lesions in Nrf2−/− mice were observable using both staining methods; however, they were more apparent in the fluorojade B-stained sections; these sections were used for lesion volume quantification (FIG. 3D)."}, "[7]": {"test_system": "Nrf2−/−, +/− and +/+ mice", "settings": "for Average lesion size: 0.5M malonate 1 μl intrastriatal, cresyl violet", "protocol": "(§6) Mice were anesthetized with isoflurane. […] One minute after insertion of the Hamilton syringe, the solution was administered over 2 minutes and the needle was withdrawn 2 mm per minute. ARE-hPAP+ mice were injected similarly with 0.25M (1 μl), due to differences in background strain sensitivity.\nas §5\nTen days post-injection mice were sacrified and lesion size was measured by cresyl violet staining (FIG. 4A)."}, "[8]": {"test_system": "antioxidant response element (ARE)", "experiment": "hPAP histochemistry after intrastriatal malonate in ARE-hPAP reporter mice", "assay_type": "in vivo, mouse", "settings": "48 hours after intrastriatal malonate", "protocol": "as §6, §5\nMalonate was injected intrastriatally into ARE-hPAP reporter mice. After 48 hours the mice were euthanized and hPAP histochemistry was performed. […] ARE-activated astrocytes, as visualized by GFAP immunohistochemistry, occur in a similar pattern (FIG. 5C)."}, "[9]": {"settings": "Nrf2−/− mice, 50 mg/kg i.p. every 12 hours, 7 injections"}}, "note": "Like-named read-outs stand apart in the source and are kept apart here."}
{"compound": "O=C(O)CC[N+](=O)[O-]", "note": "[3NP, 3-nitropropionic acid]", "values": [{"measurement": "LDH release", "setting": "[1]", "result": "greater in the Nrf2−/− cultures than in wild-type cultures"}, {"measurement": "TUNEL-positive neurons", "setting": "[2]; Nrf2+/+ neurons", "result": "significantly lower percentage"}, {"measurement": "TUNEL-positive neurons", "setting": "[2]; Nrf2−/− neurons", "result": "Nearly all"}, {"measurement": "hPAP expression", "setting": "[3]", "result": "significantly increased"}, {"measurement": "Mice scored Stage 0", "setting": "Nrf2−/−, +/− or +/+ mice [4]; Nrf2+/+ mice, 50 mg/kg i.p. every 12 hours, 7 injections", "result": 5}, {"measurement": "Mice scored Stage 0", "setting": "Nrf2−/−, +/− or +/+ mice [4]; Nrf2+/− mice, 50 mg/kg i.p. every 12 hours, 7 injections", "result": 4}, {"measurement": "Mice scored Stage 0", "setting": "Nrf2−/−, +/− or +/+ mice [4]; [9]", "result": 1}, {"measurement": "Mice scored Stage I", "setting": "Nrf2−/−, +/− or +/+ mice [4]; [9]", "result": 3}, {"measurement": "Mice scored Stage II", "setting": "Nrf2−/−, +/− or +/+ mice [4]; [9]", "result": 1}, {"measurement": "Weight loss, percent of starting weight", "setting": "Nrf2−/−, +/− or +/+ mice [4]; Nrf2−/− mice, after seven doses of 50 mg/kg", "result": "12±1.9", "unit": "%"}, {"measurement": "Death", "setting": "Nrf2−/−, +/− or +/+ mice [4]; Nrf2−/− mice, prior to the seventh dose of 50 mg/kg", "result": "one mouse died"}, {"measurement": "Rotarod function", "setting": "Nrf2−/−, +/− or +/+ mice [5]", "result": "significantly reduced function"}, {"measurement": "Mice with measurable lesions", "setting": "Nrf2−/−, +/− or +/+ mice [6]; Nrf2+/+ mice", "result": "No lesions"}, {"measurement": "Mice with measurable lesions", "setting": "Nrf2−/−, +/− or +/+ mice [6]; Nrf2+/− mice", "result": "only one"}, {"measurement": "Mice with measurable lesions", "setting": "Nrf2−/−, +/− or +/+ mice [6]; Nrf2−/− mice", "result": "Five of the eight"}]}
{"compound": "O=C(O)CC(=O)O", "note": "[malonate]", "values": [{"measurement": "Average lesion size", "setting": "[7]; Nrf2+/+ mice, ten days post-injection", "result": "0.03±0.07", "unit": "mm^3"}, {"measurement": "Average lesion size", "setting": "[7]; Nrf2+/− mice, ten days post-injection", "result": "0.16±0.07", "unit": "mm^3"}, {"measurement": "Increase of average lesion size", "setting": "[7]; Nrf2−/− versus Nrf2+/+ mice", "result": "over 21 fold"}, {"measurement": "Increase of average lesion size", "setting": "[7]; Nrf2−/− versus Nrf2+/− mice", "result": 4, "unit": "fold"}, {"measurement": "Overt behavioral phenotype", "setting": "[7]; all genotypes, ten days post-injection", "result": "None of the mice exhibited an overt behavioral phenotype"}, {"measurement": "hPAP activity", "setting": "[8]", "result": "present near the edges of the lesion"}]}
